The values that follow come from patent US11370798B2 (Vertex Pharmaceuticals Incorporated, priority 2012, dated 2022).

The assay relates to HCT116 colorectal cancer cells. Description: Cisplatin sensitization assay (96 h cell viability MTS).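 Also: Test-compound concentration that lowers the Cisplatin IC50 by a set fold.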 In kind it is cell-based. The following applies: compound and Cisplatin added simultaneously, Cisplatin sensitization value. The method in brief: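 Compound and cisplatin added together as a full matrix of 2-fold serial dilutions from a top final concentration of 10 μM; cells incubated 96 h at 37° C, 5% CO2. Viability then read by MTS after 1 h further incubation; sensitization value reported in μM bins.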

Regarding `Nc1nn2cc(F)cnc2c1C(=O)Nc1cncc(F)c1N1CCC(C(=O)O)CC1` [I-N-92, 1-(3-(2-amino-6-fluoropyrazolo[1,5-a]pyrimidine-3-carboxamido)-5-fluoropyridin-4-yl)piperidine-4-carboxylic acid], the “Cisplatin Sensitization Assay” value is reported as “+ (Cisplatin sensitization value>0.2 μM but <5 μM)”.
In the case of `CN(C)C1CN(C2CCN(c3ccncc3NC(=O)c3c(N)nn4cc(Cl)cnc34)CC2)C1` [I-N-94, 2-amino-6-chloro-N-(4-(4-(3-(dimethylamino)azetidin-1-yl)piperidin-1-yl)pyridin-3-yl)pyrazolo[1,5-a]pyrimidine-3-carboxamide], the “Cisplatin Sensitization Assay” value is listed as “+++ (Cisplatin sensitization value of <0.02 μM)”.
The entry for `COC1CCN(C2CCN(c3ccncc3NC(=O)c3c(N)nn4cc(Cl)cnc34)CC2)C1` (stereo not drawn) [I-N-95, 2-amino-6-chloro-N-(4-(4-(3-methoxypyrrolidin-1-yl)piperidin-1-yl)pyridin-3-yl)pyrazolo[1,5-a]pyrimidine-3-carboxamide] is “++ (Cisplatin sensitization value>0.02 μM but <0.2 μM)”; for `CN1CCN(C2CCN(c3ccncc3NC(=O)c3c(N)nn4cc(Cl)cnc34)CC2)CC1` [I-N-97, 2-amino-6-chloro-N-(4-(4-(4-methylpiperazin-1-yl)piperidin-1-yl)pyridin-3-yl)pyrazolo[1,5-a]pyrimidine-3-carboxamide] it is “+++ (Cisplatin sensitization value of <0.02 μM)”; for `Nc1nn2cc(Cl)cnc2c1C(=O)Nc1cnccc1N1CCC(N2CC[C@@H](F)C2)CC1` [I-N-98, (R)-2-amino-6-chloro-N-(4-(4-(3-fluoropyrrolidin-1-yl)piperidin-1-yl)pyridin-3-yl)pyrazolo[1,5-a]pyrimidine-3-carboxamide] it is “+++ (Cisplatin sensitization value of <0.02 μM)”.
The result for `Nc1nn2cc(Cl)cnc2c1C(=O)Nc1cnccc1N1CCC(N2CCC3(COC3)C2)CC1` [I-N-99, N-(4-(4-(2-oxa-6-azaspiro[3.4]octan-6-yl)piperidin-1-yl)pyridin-3-yl)-2-amino-6-chloropyrazolo[1,5-a]pyrimidine-3-carboxamide] reads “+++ (Cisplatin sensitization value of <0.02 μM)”.
In the case of `Nc1nn2cc(Cl)cnc2c1C(=O)Nc1cnccc1N1CCC(N2CC[S+]([O-])CC2)CC1` [I-N-100, 2-amino-6-chloro-N-(4-(4-(1-oxidothiomorpholino)piperidin-1-yl)pyridin-3-yl)pyrazolo[1,5-a]pyrimidine-3-carboxamide], the “Cisplatin Sensitization Assay” value is on record as “++ (Cisplatin sensitization value>0.02 μM but <0.2 μM)”.
Regarding `Nc1nn2cc(Cl)cnc2c1C(=O)Nc1cnccc1N1CCC(N2CCn3cncc3C2)CC1` [I-N-101, 2-amino-6-chloro-N-(4-(4-(5,6-dihydroimidazo[1,5-a]pyrazin-7(8H)-yl)piperidin-1-yl)pyridin-3-yl)pyrazolo[1,5-a]pyrimidine-3-carboxamide], the “Cisplatin Sensitization Assay” value is given as “++ (Cisplatin sensitization value>0.02 μM but <0.2 μM)”.
Consider `Nc1nn2cc(Cl)cnc2c1C(=O)Nc1cnccc1N1CCC(N2CCn3ccnc3C2)CC1` [I-N-102, 2-amino-6-chloro-N-(4-(4-(5,6-dihydroimidazo[1,2-a]pyrazin-7(8H)-yl)piperidin-1-yl)pyridin-3-yl)pyrazolo[1,5-a]pyrimidine-3-carboxamide], for which the “Cisplatin Sensitization Assay” value was “++ (Cisplatin sensitization value>0.02 μM but <0.2 μM)”.
The entry for `Nc1nn2cc(Cl)cnc2c1C(=O)Nc1cnccc1N1CCC(N2CC[C@H](F)C2)CC1` [I-N-103, (S)-2-amino-6-chloro-N-(4-(4-(3-fluoropyrrolidin-1-yl)piperidin-1-yl)pyridin-3-yl)pyrazolo[1,5-a]pyrimidine-3-carboxamide] is “+++ (Cisplatin sensitization value of <0.02 μM)”.
The entry for `Nc1nn2cc(Cl)cnc2c1C(=O)Nc1cnccc1N1CCC(N2CCOCC2)CC1` [I-N-104, 2-amino-6-chloro-N-(4-(4-morpholinopiperidin-1-yl)pyridin-3-yl)pyrazolo[1,5-a]pyrimidine-3-carboxamide] is “+++ (Cisplatin sensitization value of <0.02 μM)”.
The entry for `Nc1nn2cc(Cl)cnc2c1C(=O)Nc1cnccc1N1CCC(N2CCCC2)CC1` [I-N-105, 2-amino-6-chloro-N-(4-(4-(pyrrolidin-1-yl)piperidin-1-yl)pyridin-3-yl)pyrazolo[1,5-a]pyrimidine-3-carboxamide] is “+++ (Cisplatin sensitization value of <0.02 μM)”; for `CN(C)C1CCN(C2CCN(c3ccncc3NC(=O)c3c(N)nn4cc(Cl)cnc34)CC2)C1` (stereo not drawn) [I-N-106, 2-amino-6-chloro-N-(4-(4-(3-(dimethylamino)pyrrolidin-1-yl)piperidin-1-yl)pyridin-3-yl)pyrazolo[1,5-a]pyrimidine-3-carboxamide] it is “+++ (Cisplatin sensitization value of <0.02 μM)”.
Turning to `COC1CN(C2CCN(c3ccncc3NC(=O)c3c(N)nn4cc(Cl)cnc34)CC2)C1` [I-N-107, 2-amino-6-chloro-N-(4-(4-(3-methoxyazetidin-1-yl)piperidin-1-yl)pyridin-3-yl)pyrazolo[1,5-a]pyrimidine-3-carboxamide], the “Cisplatin Sensitization Assay” value is “+++ (Cisplatin sensitization value of <0.02 μM)”.
The result for `Nc1nn2cc(Cl)cnc2c1C(=O)Nc1cnccc1N1CCC(N2CC(F)(F)C2)CC1` [I-N-108, 2-amino-6-chloro-N-(4-(4-(3,3-difluoroazetidin-1-yl)piperidin-1-yl)pyridin-3-yl)pyrazolo[1,5-a]pyrimidine-3-carboxamide] reads “+++ (Cisplatin sensitization value of <0.02 μM)”.
Consider `Nc1nn2cc(Cl)cnc2c1C(=O)Nc1cnccc1N1CCC(N2CCC23COC3)CC1` [I-N-109, N-(4-(4-(6-oxa-1-azaspiro[3.3]heptan-1-yl)piperidin-1-yl)pyridin-3-yl)-2-amino-6-chloropyrazolo[1,5-a]pyrimidine-3-carboxamide], for which the “Cisplatin Sensitization Assay” value is recorded as “+++ (Cisplatin sensitization value of <0.02 μM)”.
Regarding `CN1CCN(c2c(NC(=O)c3c(N)nn4cc(F)cnc34)cncc2C(F)F)CC1` [I-N-111, 2-amino-N-(5-(difluoromethyl)-4-(4-methylpiperazin-1-yl)pyridin-3-yl)-6-fluoropyrazolo[1,5-a]pyrimidine-3-carboxamide], the “Cisplatin Sensitization Assay” value is reported as “++ (Cisplatin sensitization value>0.02 μM but <0.2 μM)”.
The result for `Nc1nn2cc(F)cnc2c1C(=O)Nc1cnccc1N1CCN(C2COC2)C2CC21` (stereo not drawn) [I-N-112, 2-amino-6-fluoro-N-(4-(5-(oxetan-3-yl)-2,5-diazabicyclo[4.1.0]heptan-2-yl)pyridin-3-yl)pyrazolo[1,5-a]pyrimidine-3-carboxamide] reads “+ (Cisplatin sensitization value>0.2 μM but <5 μM)”; that for `CN1CCN(c2c(C#N)cncc2NC(=O)c2c(N)nn3cc(F)cnc23)CC1` [I-N-113, 2-amino-N-(5-cyano-4-(4-methylpiperazin-1-yl)pyridin-3-yl)-6-fluoropyrazolo[1,5-a]pyrimidine-3-carboxamide], “+ (Cisplatin sensitization value>0.2 μM but <5 μM)”; that for `Nc1nn2cc(F)cnc2c1C(=O)Nc1cnccc1N1CCN2CCOC[C@@H]2C1` [I-N-115, (S)-2-amino-6-fluoro-N-(4-(hexahydropyrazino[2,1-c][1,4]oxazin-8(1H)-yl)pyridin-3-yl)pyrazolo[1,5-a]pyrimidine-3-carboxamide], “+++ (Cisplatin sensitization value of <0.02 μM)”.
The result for `Nc1nn2cc(F)cnc2c1C(=O)Nc1cnccc1N1CCN2CCOC[C@H]2C1` [I-N-116, (R)-2-amino-6-fluoro-N-(4-(hexahydropyrazino[2,1-c][1,4]oxazin-8(1H)-yl)pyridin-3-yl)pyrazolo[1,5-a]pyrimidine-3-carboxamide] reads “++ (Cisplatin sensitization value>0.02 μM but <0.2 μM)”; that for `Nc1nn2cc(Cl)cnc2c1C(=O)Nc1cncc(F)c1N1CCN(C2COC2)CC1` [I-N-117, 2-amino-6-chloro-N-(5-fluoro-4-(4-(oxetan-3-yl)piperazin-1-yl)pyridin-3-yl)pyrazolo[1,5-a]pyrimidine-3-carboxamide], “+++ (Cisplatin sensitization value of <0.02 μM)”; that for `Nc1nn2cc(F)cnc2c1C(=O)Nc1cncc(F)c1N1CCNCC1` [I-N-118, 2-amino-6-fluoro-N-(5-fluoro-4-(piperazin-1-yl)pyridin-3-yl)pyrazolo[1,5-a]pyrimidine-3-carboxamide], “+++ (Cisplatin sensitization value of <0.02 μM)”.
The entry for `Nc1nn2cc(F)cnc2c1C(=O)Nc1cncc(C2CC2)c1N1CCN([C@@H]2CCOC2)CC1` [I-N-119, (R)-2-amino-N-(5-cyclopropyl-4-(4-(tetrahydrofuran-3-yl)piperazin-1-yl)pyridin-3-yl)-6-fluoropyrazolo[1,5-a]pyrimidine-3-carboxamide] is “++ (Cisplatin sensitization value>0.02 μM but <0.2 μM)”.
Consider `Nc1nn2cc(F)cnc2c1C(=O)Nc1cncc(C2CC2)c1N1CCN([C@H]2CCOC2)CC1` [I-N-120, (S)-2-amino-N-(5-cyclopropyl-4-(4-(tetrahydrofuran-3-yl)piperazin-1-yl)pyridin-3-yl)-6-fluoropyrazolo[1,5-a]pyrimidine-3-carboxamide], for which the “Cisplatin Sensitization Assay” value is reported as “+++ (Cisplatin sensitization value of <0.02 μM)”.
For `Nc1nn2cc(F)cnc2c1C(=O)Nc1cncc(F)c1N1CCN(C2CCOCC2)CC1` [I-N-121, 2-amino-6-fluoro-N-(5-fluoro-4-(4-(tetrahydro-2H-pyran-4-yl)piperazin-1-yl)pyridin-3-yl)pyrazolo[1,5-a]pyrimidine-3-carboxamide], the “Cisplatin Sensitization Assay” value is on record as “+++ (Cisplatin sensitization value of <0.02 μM)”.
The entry for `Nc1nn2cc(F)cnc2c1C(=O)Nc1cncc(F)c1N1CCN(C2CCOC2)CC1` (stereo not drawn) [I-N-122, 2-amino-6-fluoro-N-(5-fluoro-4-(4-(tetrahydrofuran-3-yl)piperazin-1-yl)pyridin-3-yl)pyrazolo[1,5-a]pyrimidine-3-carboxamide] is “++ (Cisplatin sensitization value>0.02 μM but <0.2 μM)”.
